Experimental data from patent publication US10662555B2, “Polyimide fiber and method for producing polyimide fiber” (I.S.T Corporation, priority 2016, dated 2020).

Legend:
[1] = octanol-water partition coefficient (Log P) at 25° C., shake flask method; conditions: for Log P: octanol-water partition coefficient at 25° C.; for logP: octanol/water
[2] = conjugate acid in water at 25° C.; cited from earlier work

SMILES	Log P [1]	logP [1]	other results
Cn1ccnc1 [1-methyl-1,3-diazole]		-0.19	pKa [2]: 6.95
Cc1nccn1C [1,2-dimethyl-1,3-diazole]		0.11	
CC(O)CN(CC(C)O)CC(C)O (centres unmarked) [triisopropanolamine]			logP (physchem): -0.015
Cc1cccnc1 [β-picoline]	1.2		

Now from value to molecule, other results behind:

Log P [1]	logP [1]	SMILES	other results
>2.79	> 2.79	CCCCN(CCCC)CCCC [Tributylamine, tributylamine]	
	1.45	CCN(CC)CC [Triethylamine, triethylamine]	
0.24		Cc1ncc[nH]1 [2-methyl-1,3-diazole]	
−1.5		C1CNCCN1 [Piperazine, piperazine]	
2.79		CCCN(CCC)CCC [Tripropylamine, tripropylamine]	
